For 16 molecules, IC50 and activation results are on record in patent US8283353B2, “Fused ring compound and use thereof” (Takeda Pharmaceutical Company Limited, priority 2009, dated 2012).

The target in test [1] is T1, human AT1 receptor (Homo sapiens, UniProt P30556).
T1 construct: expressed in transfected cells; membrane fraction
T1 sequence (P30556 1-359): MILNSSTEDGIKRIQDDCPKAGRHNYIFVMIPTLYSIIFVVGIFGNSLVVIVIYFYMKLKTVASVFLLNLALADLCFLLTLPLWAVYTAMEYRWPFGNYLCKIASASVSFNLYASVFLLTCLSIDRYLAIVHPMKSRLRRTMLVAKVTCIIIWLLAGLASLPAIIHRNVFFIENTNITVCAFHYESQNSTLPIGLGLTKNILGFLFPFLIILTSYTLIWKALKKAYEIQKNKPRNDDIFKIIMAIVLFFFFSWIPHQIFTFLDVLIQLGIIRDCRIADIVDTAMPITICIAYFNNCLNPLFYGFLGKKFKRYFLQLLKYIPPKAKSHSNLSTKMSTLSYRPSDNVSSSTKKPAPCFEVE
Put plainly: AT1 receptor antagonistic activity: [125I]-angiotensin II binding assay on human AT1 receptor-expressing CHO-K1 cellular membrane fraction. Particulars: 22.5 pM [125I]-angiotensin II, 1 hr room temperature. An outline of the steps: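 Competition binding used radiolabelled angiotensin II on stably transfected CHO-K1 membrane fractions in Tris pH 7.4/MgCl2 buffer, optionally containing 0.3 mg/mL fatty acid-free BSA, 1 hr at room temperature. Filtration onto GF/C separated bound tracer, and nonspecific binding was measured with candesartan.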

For test [2], the target named is T2, human PPARγ (Homo sapiens, UniProt P37231).
T2 construct: expressed in transfected cells
T2 sequence (P37231 1-477 isoform P37231-2): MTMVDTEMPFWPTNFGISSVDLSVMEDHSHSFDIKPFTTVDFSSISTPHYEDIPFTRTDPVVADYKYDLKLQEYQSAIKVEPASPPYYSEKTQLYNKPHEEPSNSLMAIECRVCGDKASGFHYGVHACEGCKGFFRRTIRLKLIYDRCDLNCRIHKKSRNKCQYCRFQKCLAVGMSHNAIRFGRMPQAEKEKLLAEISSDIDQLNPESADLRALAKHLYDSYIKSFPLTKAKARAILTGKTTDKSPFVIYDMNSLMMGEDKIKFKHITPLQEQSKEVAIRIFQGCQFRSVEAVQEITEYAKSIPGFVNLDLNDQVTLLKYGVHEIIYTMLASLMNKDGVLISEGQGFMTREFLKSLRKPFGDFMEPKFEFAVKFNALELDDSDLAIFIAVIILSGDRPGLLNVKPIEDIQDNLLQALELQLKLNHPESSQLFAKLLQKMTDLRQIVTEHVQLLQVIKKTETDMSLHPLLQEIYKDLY
T2 sequence (P19793 1-462 partner): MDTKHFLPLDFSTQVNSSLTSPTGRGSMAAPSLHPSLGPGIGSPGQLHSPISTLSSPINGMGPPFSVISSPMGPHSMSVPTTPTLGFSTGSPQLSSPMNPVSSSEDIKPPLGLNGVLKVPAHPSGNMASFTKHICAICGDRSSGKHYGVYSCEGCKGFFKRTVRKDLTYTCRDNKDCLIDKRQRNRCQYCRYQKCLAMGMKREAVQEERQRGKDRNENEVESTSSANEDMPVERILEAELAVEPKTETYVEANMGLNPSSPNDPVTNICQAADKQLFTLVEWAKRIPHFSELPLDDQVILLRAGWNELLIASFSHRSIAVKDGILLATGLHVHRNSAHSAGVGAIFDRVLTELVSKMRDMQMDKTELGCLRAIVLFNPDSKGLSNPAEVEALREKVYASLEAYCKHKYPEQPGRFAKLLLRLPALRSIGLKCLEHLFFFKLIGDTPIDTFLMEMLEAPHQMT
Put plainly: PPARγ agonistic activity: luciferase reporter assay in PPARγ:RXRα:4ERPP/CHO-K1 cells. Particulars: CHO-K1, test compound 10^−6 M; luciferase activity of control compound X (1 μM) = 100%, non-administration group = 0%. In kind it is cell-based. An outline of the steps:
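CHO-K1 cells stably carrying hPPARγ/RXRα and a 4ERPP luciferase reporter, dosed with test compound for 1 day at 37 °C in Ham's F12 with 0.1% fatty acid-free BSA. Luciferase read by luminescence; activity given as % of 1 μM control compound X (100%) versus untreated (0%).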

The term IC50 denotes the point on the concentration scale where inhibition reaches its midpoint. As to `CCCc1c(Cc2ccc(-c3ccccc3-c3noc(=O)[nH]3)cc2)c(=O)n(C2CCC2)c2nc(C)nn12` [Example 83, 4-cyclobutyl-2-methyl-6-{[2′-(5-oxo-4,5-dihydro-1,2,4-oxadiazol-3-yl)biphenyl-4-yl]methyl}-7-propyl[1,2,4]triazolo[1,5-a]pyrimidin-5(4H)-one], the IC50 in test [1] stood at 1.5 nM. Besides, in test [2], the activation at 1 µM worked out at 16%.
For the molecule `CCCc1c(Cc2ccc(-c3ccccc3-c3noc(=O)[nH]3)cc2)c(=O)n(C/C(=N\OCC)C(F)(F)F)c2nc(C)nn12` [Example 107, 4-[(2E)-2-(ethoxyimino)-3,3,3-trifluoropropyl]-2-methyl-6-{[2′-(5-oxo-4,5-dihydro-1,2,4-oxadiazol-3-yl)biphenyl-4-yl]methyl}-7-propyl[1,2,4]triazolo[1,5-a]pyrimidin-5(4H)-one], the 50% inhibitory concentration (IC50) in test [1] was found to be 1.9 nM. Moreover, the activation at 1 µM in test [2] came to 16%.
`CCCc1c(Cc2ccc(-c3ccccc3-c3noc(=O)[nH]3)cc2F)c(=O)n(C2CCOCC2)c2nc(C)nn12` [Example 108, 6-{[3-fluoro-2′-(5-oxo-4,5-dihydro-1,2,4-oxadiazol-3-yl)biphenyl-4-yl]methyl}-2-methyl-7-propyl-4-(tetrahydro-2H-pyran-4-yl)[1,2,4]triazolo[1,5-a]pyrimidin-5(4H)-one] returned an IC50 in test [1] of 1.5 nM. In test [2], the activation at 1 µM was determined as 16%.
As for `CCCc1c(Cc2ccc(-c3ccccc3-c3noc(=O)[nH]3)cc2)c(=O)n(C2CCOCC2)c2ncnn12` [Example 109, 6-{[2′-(5-oxo-4,5-dihydro-1,2,4-oxadiazol-3-yl)biphenyl-4-yl]methyl}-7-propyl-4-(tetrahydro-2H-pyran-4-yl)[1,2,4]triazolo[1,5-a]pyrimidin-5(4H)-one], the IC50 in test [1] worked out at 2.2 nM. This molecule yielded an activation at 1 µM in test [2] of 16%.
`CCCc1c(Cc2ccc(-c3ccccc3-c3noc(=O)[nH]3)cc2F)c(=O)n(C2CCSCC2)c2nc(C)nn12` [Example 113, 6-{[3-fluoro-2′-(5-oxo-4,5-dihydro-1,2,4-oxadiazol-3-yl)biphenyl-4-yl]methyl}-2-methyl-7-propyl-4-(tetrahydro-2H-thiopyran-4-yl)[1,2,4]triazolo[1,5-a]pyrimidin-5(4H)-one]: the IC50 in test [1] came to 1.5 nM. In test [2], this molecule had an activation at 1 µM of 20%.
Molecule `CCCc1c(Cc2ccc(-c3ccccc3-c3noc(=O)[nH]3)cc2)c(=O)n(C(C)/C(C)=N/OCC)c2nc(C)nn12` (centres unmarked) [Example 114, 4-[(2E)-2-(ethoxyimino)-1-methylpropyl]-2-methyl-6-{[2′-(5-oxo-4,5-dihydro-1,2,4-oxadiazol-3-yl)biphenyl-4-yl]methyl}-7-propyl[1,2,4]triazolo[1,5-a]pyrimidin-5(4H)-one] returned a half-inhibitory concentration (IC50) in test [1] of 2 nM. Also, the activation at 1 µM in test [2] is 16%.
On the same counts, the results for `CCCc1c(Cc2ccc(-c3ccccc3-c3noc(=O)[nH]3)cc2F)c(=O)n(C2CCOCC2)c2ncnn12` [Example 117, 6-{[3-fluoro-2′-(5-oxo-4,5-dihydro-1,2,4-oxadiazol-3-yl)biphenyl-4-yl]methyl}-7-propyl-4-(tetrahydro-2H-pyran-4-yl)[1,2,4]triazolo[1,5-a]pyrimidin-5(4H)-one] are 1.3 nM and 18%.
In the case of `CCCc1c(Cc2ccc(-c3ccccc3-c3noc(=O)[nH]3)cc2F)c(=O)n(C2CCCOC2)c2ncnn12` (centres unmarked) [Example 121, 6-{[3-fluoro-2′-(5-oxo-4,5-dihydro-1,2,4-oxadiazol-3-yl)biphenyl-4-yl]methyl}-7-propyl-4-(tetrahydro-2H-pyran-3-yl)[1,2,4]triazolo[1,5-a]pyrimidin-5(4H)-one], the IC50 in test [1] is 1.9 nM. Moreover, the activation at 1 µM in test [2] was determined as 31%.
Consider `CCCc1c(Cc2ccc(-c3ccccc3-c3noc(=O)[nH]3)cc2)c(=O)n(C2CCCOC2)c2ncnn12` (centres unmarked) [Example 124, 6-{[2′-(5-oxo-4,5-dihydro-1,2,4-oxadiazol-3-yl)biphenyl-4-yl]methyl}-7-propyl-4-(tetrahydro-2H-pyran-3-yl)[1,2,4]triazolo[1,5-a]pyrimidin-5(4H)-one], for which the IC50 in test [1] turned out to be 2.4 nM. Moreover, in test [2], the activation at 1 µM stood at 21%.
For the molecule `CCCCc1c(Cc2ccc(-c3ccccc3-c3noc(=O)[nH]3)cc2)c(=O)n(C2CCOCC2)c2ncnn12` [Example 125, 7-butyl-6-{[2′-(5-oxo-4,5-dihydro-1,2,4-oxadiazol-3-yl)biphenyl-4-yl]methyl}-4-(tetrahydro-2H-pyran-4-yl)[1,2,4]triazolo[1,5-a]pyrimidin-5(4H)-one], the 50% inhibitory concentration (IC50) in test [1] is 1.9 nM. This molecule had an activation at 1 µM in test [2] of 23%.
As for `CCCc1c(C(C)c2ccc(-c3ccccc3-c3noc(=O)[nH]3)cc2)c(=O)n([C@H]2CC[C@H](OCC(C)(C)O)CC2)c2ncnn12` (stereo partly drawn) [Example 131, 4-[trans-4-(2-hydroxy-2-methylpropoxy)cyclohexyl]-6-{1-[2′-(5-oxo-4,5-dihydro-1,2,4-oxadiazol-3-yl)biphenyl-4-yl]ethyl}-7-propyl[1,2,4]triazolo[1,5-a]pyrimidin-5(4H)-one], the IC50 in test [1] worked out at 2.9 nM. This molecule also had an activation at 1 µM in test [2] of 15%.
Regarding `CCCCc1c(Cc2ccc(-c3ccccc3-c3noc(=O)[nH]3)cc2)c(=O)n(C2CCOC(C)(C)C2)c2ncnn12` (centres unmarked) [Example 134, 7-butyl-4-(2,2-dimethyltetrahydro-2H-pyran-4-yl)-6-{[2′-(5-oxo-4,5-dihydro-1,2,4-oxadiazol-3-yl)biphenyl-4-yl]methyl}[1,2,4]triazolo[1,5-a]pyrimidin-5(4H)-one], the IC50 in test [1] turned out to be 1.3 nM. Moreover, in test [2], the activation at 1 µM amounted to 26%.
For the molecule `CCCCc1c(Cc2ccc(-c3ccccc3-c3noc(=O)[nH]3)cc2F)c(=O)n(C2CCOCC2)c2nc(C)nn12` [Example 135, 7-butyl-6-{[3-fluoro-2′-(5-oxo-4,5-dihydro-1,2,4-oxadiazol-3-yl)biphenyl-4-yl]methyl}-2-methyl-4-(tetrahydro-2H-pyran-4-yl)[1,2,4]triazolo[1,5-a]pyrimidin-5(4H)-one], the IC50 in test [1] was found to be 0.9 nM. In test [2], this molecule yielded an activation at 1 µM of 26%.
As for `CCCc1c(Cc2ccc(-c3ccccc3-c3noc(=O)[nH]3)cc2F)c(=O)n(C2CCOC(C)(C)C2)c2nc(C)nn12` (centres unmarked) [Example 136, 4-(2,2-dimethyltetrahydro-2H-pyran-4-yl)-6-{[3-fluoro-2′-(5-oxo-4,5-dihydro-1,2,4-oxadiazol-3-yl)biphenyl-4-yl]methyl}-2-methyl-7-propyl[1,2,4]triazolo[1,5-a]pyrimidin-5(4H)-one], the concentration for half-maximal inhibition (IC50) in test [1] was 1.3 nM. Further, the activation at 1 µM in test [2] was 17%.
Molecule `CCCCc1c(Cc2ccc(-c3ccccc3-c3noc(=O)[nH]3)cc2)c(=O)n(C2CCOC(C)(C)C2)c2nc(C)nn12` (centres unmarked) [Example 137, 7-butyl-4-(2,2-dimethyltetrahydro-2H-pyran-4-yl)-2-methyl-6-{[2′-(5-oxo-4,5-dihydro-1,2,4-oxadiazol-3-yl)biphenyl-4-yl]methyl}[1,2,4]triazolo[1,5-a]pyrimidin-5(4H)-one] gave an IC50 in test [1] of 1.4 nM. In addition, in test [2], the activation at 1 µM was determined as 20%.
`CCCCc1c(Cc2ccc(-c3ccccc3-c3noc(=O)[nH]3)cc2)c(=O)n([C@@H]2C[C@@H](C)O[C@@H](C)C2)c2ncnn12` [Example 138, 7-butyl-4-[(2R,4s,6S)-2,6-dimethyltetrahydro-2H-pyran-4-yl]-6-{[2′-(5-oxo-4,5-dihydro-1,2,4-oxadiazol-3-yl)biphenyl-4-yl]methyl}[1,2,4]triazolo[1,5-a]pyrimidin-5(4H)-one]: in test [1], the IC50 came to 1.3 nM. The activation at 1 µM in test [2] came out at 8%.
